Test systems include SN12C; OVCAR-8; SF-295; TK-10; HL-60; SW-620; A549; ACHN; SK-MEL-5; UACC-62; HOP-62; SNB-19; RPMI-8226; SF-268; CAKI-1.
Common to all, as to assay: growth of human tumour cells (NCI), 48 h

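Tested at 5 concentrations; 48 h exposure; 96-well plates; endpoints linearly interpolated, else capped at highest concentration. GI50: concentration for 50% inhibition of growth.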 Active and inactive are the calls of the source. Rule as the data show it: active = GI50 up to about 1.1 µM and inactive = higher.

`Cc1ccc(S(=O)(=O)OC(c2ccc(Cl)cc2Cl)C2OC(=O)c3ccccc32)cc1` (configuration not stated): the GI50 with SN12C is > 100 µM (inactive); with OVCAR-8 it was > 100 µM (inactive); with SF-295 it was 90.2 µM (inactive); in the assay on TK-10, > 100 µM (inactive); with HL-60 it was 21.4 µM (inactive); with SW-620, 71.4 µM (inactive). In addition, the GI50 was 68.5 µM (inactive) with A549; > 100 µM (inactive) with ACHN; 53.1 µM (inactive) in the assay on SK-MEL-5; 53.8 µM (inactive) with UACC-62; > 100 µM (inactive) in the assay on HOP-62; 42.7 µM (inactive) in the assay with SNB-19. Also, the results for the GI50 in the assay on RPMI-8226 and with SF-268 were 36.7 µM (inactive) and 51.3 µM (inactive), respectively.

Regarding `Cn1cccc1/C=C/c1cc(Br)c(/C=C/c2cccn2C)cc1Br`, the GI50 in the assay on SN12C was 21 µM (inactive); with OVCAR-8, > 10 µM (inactive); in the assay with SF-295, 20.9 µM (inactive); in the assay with TK-10, 22.5 µM (inactive); with HL-60, 13.6 µM (inactive); in the assay on CAKI-1, 15.3 µM (inactive). The GI50 in the assay with SW-620 was 20.9 µM (inactive); with A549, 11.9 µM (inactive); in the assay with ACHN it was 10.2 µM (inactive); in the assay with SK-MEL-5 it was 15.2 µM (inactive); in the assay with UACC-62, 13.8 µM (inactive); in the assay with SNB-19 it was 24.2 µM (inactive). The values for the GI50 in the assay on RPMI-8226 and with SF-268 were 15.2 µM (inactive) and 20.5 µM (inactive), respectively.

Regarding `Cc1cc2c(cc1C)[n+]([O-])c(C(=O)C/C(=N/OCCCc1ccccc1)C(=O)Nc1cc(Cl)ccc1Cl)c(C)[n+]2[O-]`, the GI50 with SN12C, in the assay on OVCAR-8, in the assay with SF-295, in the assay with TK-10, in the assay with HL-60 and in the assay on CAKI-1 was > 100 µM (inactive) each time. The GI50 in the assay on SW-620, with A549, with ACHN, in the assay with SK-MEL-5, with UACC-62 and in the assay with HOP-62 was > 100 µM (inactive) throughout. In addition, the GI50 in the assay with SNB-19 and in the assay on SF-268 was > 100 µM (inactive) each time.

As to `C/C(CC(=O)Nc1ccc(C)cc1)=N\NC(N)=S`, the GI50 with OVCAR-8, in the assay with SF-295, in the assay on TK-10, with HL-60, in the assay with SW-620 and with A549 was > 100 µM (inactive) throughout. Also, the GI50 with ACHN was 79.4 µM (inactive); in the assay with SK-MEL-5, > 100 µM (inactive); in the assay on UACC-62, > 100 µM (inactive); in the assay with HOP-62 it was > 100 µM (inactive); in the assay with RPMI-8226, > 100 µM (inactive); with SF-268 it was > 100 µM (inactive).

Regarding `CC(=O)OCCOCn1c2ccccc2c2c3c(c4c5ccccc5n(COCCOC(C)=O)c4c21)C(=O)N(Cc1ccccc1)C3=O`, the GI50 in the assay on SN12C, with OVCAR-8, with TK-10, in the assay on HL-60, in the assay with SW-620 and in the assay on A549 was > 100 µM (inactive) each time. Further, the GI50 in the assay with ACHN, in the assay with SK-MEL-5, in the assay with UACC-62, in the assay with HOP-62, in the assay on SNB-19 and with RPMI-8226 was > 100 µM (inactive) throughout. Further, in the assay with SF-268, the GI50 was > 100 µM (inactive).

As to `CCc1ccccc1NC(=O)C(=O)C(C#N)c1c(Cl)cccc1Cl` (configuration not stated), the GI50 in the assay on SN12C, in the assay on SF-295, in the assay on TK-10, in the assay on HL-60, with CAKI-1 and with SW-620 was > 100 µM (inactive) throughout. Further, the GI50 in the assay on A549, in the assay with ACHN, in the assay with UACC-62, in the assay with SNB-19, in the assay with RPMI-8226 and with SF-268 was > 100 µM (inactive) each time.

On to `CCN1C(=O)N(C)C(O)c2c1nc1ccccn1c2=O` (configuration not stated), for which the GI50 was 23.3 µM (inactive) in the assay with SN12C; 18.9 µM (inactive) in the assay with OVCAR-8; 28 µM (inactive) in the assay on SF-295; 22.1 µM (inactive) with TK-10; 24.9 µM (inactive) in the assay with HL-60; 35.9 µM (inactive) in the assay with SW-620. Further, the GI50 in the assay on A549 was 34.2 µM (inactive); with ACHN, 0.232 µM (active); with UACC-62, 0.103 µM (active); with HOP-62 it was 28.1 µM (inactive); with SNB-19, 39.4 µM (inactive); with RPMI-8226, 27 µM (inactive). Moreover, the GI50 with SF-268 was 25.4 µM (inactive).

Consider `COc1ccc2c(c1OC)C(C=C(c1ccccc1)c1ccccc1)CN(C)C2` (configuration not stated), for which the GI50 in the assay with SN12C was 25.5 µM (inactive); in the assay on OVCAR-8, 20.4 µM (inactive); in the assay on SF-295, 16.2 µM (inactive); in the assay with TK-10 it was 22 µM (inactive); with CAKI-1 it was 14.2 µM (inactive); in the assay with SW-620, 13.4 µM (inactive). The GI50 in the assay on A549 is 30 µM (inactive); in the assay with ACHN, 24.4 µM (inactive); with SK-MEL-5 it was 15.8 µM (inactive); in the assay with UACC-62, 17.3 µM (inactive); in the assay on HOP-62, 20.6 µM (inactive); in the assay with SNB-19 it was 29.9 µM (inactive). Further, the GI50 was 18.2 µM (inactive) with RPMI-8226 and 27.1 µM (inactive) in the assay with SF-268.

As for `CCOC(=O)C1=C(C)N(NC(=O)Nc2ccccc2)C2(N)N(NC(=O)Nc3ccccc3)C(C)=C(C(=O)OCC)C12C(=O)OCC` (configuration not stated), the GI50 with SN12C was 1.66 µM (inactive); in the assay with OVCAR-8, 35.9 µM (inactive); in the assay with SF-295 it was 47.8 µM (inactive); in the assay with TK-10 it was 80.4 µM (inactive); in the assay with HL-60, 35.2 µM (inactive); in the assay with SW-620 it was 69.7 µM (inactive). Also, the GI50 with A549 was 38.3 µM (inactive); in the assay with ACHN, 56.4 µM (inactive); in the assay with SK-MEL-5, 35.1 µM (inactive); in the assay with UACC-62 it was 49.3 µM (inactive); in the assay with HOP-62, 28.6 µM (inactive); in the assay on SNB-19, 38.9 µM (inactive). Besides, the results for the GI50 in the assay on RPMI-8226 and in the assay with SF-268 were > 100 µM (inactive) and 24.8 µM (inactive), respectively.

Regarding `O=C1c2c(c3c4ccccc4n4c3c3c2c2ccccc2n3C/C=C\C4)C(=O)N1Cc1ccccc1`, the GI50 in the assay with SN12C, in the assay on OVCAR-8, in the assay on SF-295, with TK-10, with HL-60 and in the assay with SW-620 was > 100 µM (inactive) throughout. In addition, the GI50 in the assay with A549, in the assay with ACHN, in the assay on SK-MEL-5, in the assay on UACC-62, in the assay with HOP-62 and in the assay with SNB-19 was > 100 µM (inactive) each time. Also, the GI50 in the assay with RPMI-8226 is > 100 µM (inactive).

Take `Cc1[nH]c2ccccc2c1C1Cc2ccccc2N1C(=O)/C=C\C(=O)O` (configuration not stated): the GI50 in the assay with SN12C is 29.3 µM (inactive); in the assay with SF-295 it was 45.6 µM (inactive); in the assay with TK-10 it was 45.8 µM (inactive); in the assay on HL-60, 26.4 µM (inactive); in the assay with CAKI-1 it was 24.8 µM (inactive); with SW-620 it was 32.4 µM (inactive). The GI50 in the assay with A549 was > 100 µM (inactive); in the assay with ACHN it was 96.4 µM (inactive); in the assay on SK-MEL-5, 22.6 µM (inactive); in the assay on UACC-62, 26.2 µM (inactive); in the assay on HOP-62, 31.3 µM (inactive); in the assay with SNB-19, 23.3 µM (inactive). Further, the GI50 in the assay on SF-268 is 36.3 µM (inactive).

Take `Cc1ccc(SSCCCCS(=O)O)cc1`: the GI50 was 11.4 µM (inactive) in the assay with SN12C; > 10 µM (inactive) in the assay with OVCAR-8; 26.4 µM (inactive) in the assay on SF-295; 19.9 µM (inactive) with TK-10; 3.89 µM (inactive) in the assay with HL-60; 18.9 µM (inactive) in the assay with CAKI-1. Besides, the GI50 in the assay with SW-620 is 17.5 µM (inactive); in the assay with A549, 18.5 µM (inactive); in the assay on ACHN, 19 µM (inactive); with SK-MEL-5, 11.5 µM (inactive); with UACC-62 it was 15.3 µM (inactive); in the assay on HOP-62 it was 28.7 µM (inactive). Besides, the GI50 in the assay with SNB-19 is 34.7 µM (inactive); with SF-268, 10 µM (inactive).

For the compound `COc1ccc(S(=O)(=O)Nc2ccccc2C(=O)O)cc1`, the GI50 with SN12C, with OVCAR-8, in the assay with SF-295, with TK-10, with HL-60 and in the assay with CAKI-1 was > 100 µM (inactive) each time. The GI50 with SW-620, with A549, in the assay on ACHN, in the assay on SK-MEL-5, in the assay with UACC-62 and in the assay on SNB-19 was > 100 µM (inactive) throughout. In addition, the GI50 in the assay on RPMI-8226 and in the assay with SF-268 was > 100 µM (inactive) throughout.

On to `CC(=O)OCC(=O)[C@@]12OC(C)(C)O[C@@H]1C[C@H]1[C@@H]3CC(C=O)=C4C=C(OCCCl)CC[C@]4(C)[C@@]3(F)[C@@H](O)C[C@@]12C` [FORMOCORTAL], for which the GI50 in the assay on SN12C is 13.3 µM (inactive); in the assay with OVCAR-8, 12.9 µM (inactive); with SF-295 it was 5.42 µM (inactive); with TK-10 it was 33.9 µM (inactive); in the assay on HL-60, 15.9 µM (inactive); in the assay with SW-620, 39 µM (inactive). Further, the GI50 in the assay on A549 is 24.5 µM (inactive); in the assay on ACHN it was > 100 µM (inactive); in the assay with UACC-62 it was > 100 µM (inactive); in the assay on HOP-62, 24.8 µM (inactive); in the assay on SNB-19, 30.2 µM (inactive); in the assay on RPMI-8226, 2.58 µM (inactive). The GI50 in the assay with SF-268 was 34.9 µM (inactive).

Values taken from ChEMBL document CHEMBL1201862, “PubChem BioAssay data set” (2004).
